{
  "source": "the supplement of paper PMC10307832",
  "test_in_all_cases": "relative viability (nuclei count vs DMSO), 5 days (fraction); higher = more cells survive",
  "key": {"[1]": {"system": "NCI-H647", "in_short": "(§1)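 Dosing by pin tool came one day after lung cancer cell lines were seeded in 1536-well plates, using either one drug or a fixed anchor-drug dose plus five library-drug doses (not always all listed) in √10 steps. After 5 days, nuclei were counted on 4× images. Relative viability is treated-well nuclei count divided by vehicle-well nuclei count, and values are medians of duplicate plates.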"}, "[2]": {"system": "NCI-H322M", "in_short": "as §1"}, "[3]": {"system": "PC-3 [JPC-3]", "in_short": "as §1"}, "[4]": {"system": "NCI-H1650", "in_short": "as §1"}, "[5]": {"system": "LCLC-97TM1", "in_short": "as §1"}, "[6]": {"system": "NCI-H23", "in_short": "as §1"}, "[7]": {"system": "NCI-H1915", "in_short": "as §1"}, "[8]": {"system": "NCI-H838", "in_short": "as §1"}, "[9]": {"system": "NCI-H727", "in_short": "as §1"}, "[10]": {"system": "NCI-H358", "in_short": "as §1"}, "[11]": {"system": "SK-LU-1", "in_short": "as §1"}, "[12]": {"system": "NCI-H661", "in_short": "as §1"}, "[13]": {"system": "NCI-H1792", "in_short": "as §1"}, "[14]": {"system": "EKVX", "in_short": "as §1"}, "[15]": {"system": "NCI-H1975", "in_short": "as §1"}, "[16]": {"system": "NCI-H520", "in_short": "as §1"}, "[17]": {"system": "NCI-H1437", "in_short": "as §1"}, "[18]": {"system": "NCI-H460", "in_short": "as §1"}, "[19]": {"system": "NCI-H1666", "in_short": "as §1"}, "[20]": {"system": "NCI-H596", "in_short": "as §1"}},
  "data": [
    {"molecule": "Cc1csc(=NC2CCCCC2)n1/N=C/c1ccc(O)c(O)c1O", "note": "[MIM1] + CS(=O)(=O)CCNCc1ccc(-c2ccc3ncnc(Nc4ccc(OCc5cccc(F)c5)c(Cl)c4)c3c2)o1 [Lapatinib] (partner 2 µM)", "values": [
      {"measurement": "relative viability", "setting": "[1]; first compound 0.2 µM", "value": 1.03},
      {"measurement": "relative viability", "setting": "[1]; first compound 0.6325 µM", "value": 1.04},
      {"measurement": "relative viability", "setting": "[1]; first compound 2 µM", "value": 1.02},
      {"measurement": "relative viability", "setting": "[1]; first compound 6.325 µM", "value": 0.633},
      {"measurement": "relative viability", "setting": "[1]; first compound 20 µM", "value": 0.104},
      {"measurement": "relative viability", "setting": "[2]; first compound 0.2 µM", "value": 0.653},
      {"measurement": "relative viability", "setting": "[2]; first compound 0.6325 µM", "value": 0.531},
      {"measurement": "relative viability", "setting": "[2]; first compound 2 µM", "value": 0.532},
      {"measurement": "relative viability", "setting": "[2]; first compound 6.325 µM", "value": 0.577},
      {"measurement": "relative viability", "setting": "[2]; first compound 20 µM", "value": 0.801},
      {"measurement": "relative viability", "setting": "[3]; first compound 0.2 µM", "value": 0.486},
      {"measurement": "relative viability", "setting": "[3]; first compound 0.6325 µM", "value": 0.505},
      {"measurement": "relative viability", "setting": "[3]; first compound 2 µM", "value": 0.424},
      {"measurement": "relative viability", "setting": "[3]; first compound 6.325 µM", "value": 0.45},
      {"measurement": "relative viability", "setting": "[3]; first compound 20 µM", "value": 0.46},
      {"measurement": "relative viability", "setting": "[4]; first compound 0.2 µM", "value": 0.788},
      {"measurement": "relative viability", "setting": "[4]; first compound 0.6325 µM", "value": 0.566},
      {"measurement": "relative viability", "setting": "[4]; first compound 2 µM", "value": 0.565},
      {"measurement": "relative viability", "setting": "[4]; first compound 6.325 µM", "value": 0.204},
      {"measurement": "relative viability", "setting": "[4]; first compound 20 µM", "value": 0.148},
      {"measurement": "relative viability", "setting": "[5]; first compound 0.2 µM", "value": 1.04},
      {"measurement": "relative viability", "setting": "[5]; first compound 0.6325 µM", "value": 0.526},
      {"measurement": "relative viability", "setting": "[5]; first compound 2 µM", "value": 0.539},
      {"measurement": "relative viability", "setting": "[5]; first compound 6.325 µM", "value": 0.353},
      {"measurement": "relative viability", "setting": "[5]; first compound 20 µM", "value": 0.128},
      {"measurement": "relative viability", "setting": "[6]; first compound 0.2 µM", "value": 1.13},
      {"measurement": "relative viability", "setting": "[6]; first compound 2 µM", "value": 0.734},
      {"measurement": "relative viability", "setting": "[6]; first compound 6.325 µM", "value": 0.88},
      {"measurement": "relative viability", "setting": "[6]; first compound 20 µM", "value": 0.177},
      {"measurement": "relative viability", "setting": "[7]; first compound 0.2 µM", "value": 0.996},
      {"measurement": "relative viability", "setting": "[7]; first compound 0.6325 µM", "value": 0.659},
      {"measurement": "relative viability", "setting": "[7]; first compound 2 µM", "value": 0.82},
      {"measurement": "relative viability", "setting": "[7]; first compound 6.325 µM", "value": 0.536},
      {"measurement": "relative viability", "setting": "[7]; first compound 20 µM", "value": 0.357},
      {"measurement": "relative viability", "setting": "[8]; first compound 0.2 µM", "value": 0.941},
      {"measurement": "relative viability", "setting": "[8]; first compound 0.6325 µM", "value": 0.885},
      {"measurement": "relative viability", "setting": "[8]; first compound 2 µM", "value": 0.815},
      {"measurement": "relative viability", "setting": "[8]; first compound 6.325 µM", "value": 0.672},
      {"measurement": "relative viability", "setting": "[8]; first compound 20 µM", "value": 0.183},
      {"measurement": "relative viability", "setting": "[9]; first compound 0.2 µM", "value": 0.852},
      {"measurement": "relative viability", "setting": "[9]; first compound 0.6325 µM", "value": 0.969},
      {"measurement": "relative viability", "setting": "[9]; first compound 2 µM", "value": 0.733},
      {"measurement": "relative viability", "setting": "[9]; first compound 6.325 µM", "value": 0.745},
      {"measurement": "relative viability", "setting": "[9]; first compound 20 µM", "value": 0.257},
      {"measurement": "relative viability", "setting": "[10]; first compound 0.2 µM", "value": 0.506},
      {"measurement": "relative viability", "setting": "[10]; first compound 0.6325 µM", "value": 0.475},
      {"measurement": "relative viability", "setting": "[10]; first compound 2 µM", "value": 0.433},
      {"measurement": "relative viability", "setting": "[10]; first compound 6.325 µM", "value": 0.36},
      {"measurement": "relative viability", "setting": "[10]; first compound 20 µM", "value": 0.303},
      {"measurement": "relative viability", "setting": "[11]; first compound 0.2 µM", "value": 0.825},
      {"measurement": "relative viability", "setting": "[11]; first compound 0.6325 µM", "value": 0.839},
      {"measurement": "relative viability", "setting": "[11]; first compound 2 µM", "value": 0.791},
      {"measurement": "relative viability", "setting": "[11]; first compound 6.325 µM", "value": 0.72},
      {"measurement": "relative viability", "setting": "[11]; first compound 20 µM", "value": 0.325},
      {"measurement": "relative viability", "setting": "[12]; first compound 0.2 µM", "value": 0.582},
      {"measurement": "relative viability", "setting": "[12]; first compound 0.6325 µM", "value": 0.625},
      {"measurement": "relative viability", "setting": "[12]; first compound 2 µM", "value": 0.548},
      {"measurement": "relative viability", "setting": "[12]; first compound 6.325 µM", "value": 0.498},
      {"measurement": "relative viability", "setting": "[12]; first compound 20 µM", "value": 0.29},
      {"measurement": "relative viability", "setting": "[13]; first compound 0.2 µM", "value": 0.861},
      {"measurement": "relative viability", "setting": "[13]; first compound 0.6325 µM", "value": 0.897},
      {"measurement": "relative viability", "setting": "[13]; first compound 2 µM", "value": 0.983},
      {"measurement": "relative viability", "setting": "[13]; first compound 6.325 µM", "value": 0.527},
      {"measurement": "relative viability", "setting": "[13]; first compound 20 µM", "value": 0.294},
      {"measurement": "relative viability", "setting": "[14]; first compound 0.2 µM", "value": 0.186},
      {"measurement": "relative viability", "setting": "[14]; first compound 0.6325 µM", "value": 0.221},
      {"measurement": "relative viability", "setting": "[14]; first compound 2 µM", "value": 0.179},
      {"measurement": "relative viability", "setting": "[14]; first compound 6.325 µM", "value": 0.177},
      {"measurement": "relative viability", "setting": "[14]; first compound 20 µM", "value": 0.178},
      {"measurement": "relative viability", "setting": "[15]; first compound 0.2 µM", "value": 0.789},
      {"measurement": "relative viability", "setting": "[15]; first compound 0.6325 µM", "value": 0.796},
      {"measurement": "relative viability", "setting": "[15]; first compound 2 µM", "value": 0.875},
      {"measurement": "relative viability", "setting": "[15]; first compound 6.325 µM", "value": 0.537},
      {"measurement": "relative viability", "setting": "[15]; first compound 20 µM", "value": 0.395},
      {"measurement": "relative viability", "setting": "[16]; first compound 0.2 µM", "value": 0.823},
      {"measurement": "relative viability", "setting": "[16]; first compound 0.6325 µM", "value": 0.691},
      {"measurement": "relative viability", "setting": "[16]; first compound 2 µM", "value": 0.924},
      {"measurement": "relative viability", "setting": "[16]; first compound 6.325 µM", "value": 0.691},
      {"measurement": "relative viability", "setting": "[16]; first compound 20 µM", "value": 0.269},
      {"measurement": "relative viability", "setting": "[17]; first compound 0.2 µM", "value": 0.761},
      {"measurement": "relative viability", "setting": "[17]; first compound 0.6325 µM", "value": 0.672},
      {"measurement": "relative viability", "setting": "[17]; first compound 2 µM", "value": 0.91},
      {"measurement": "relative viability", "setting": "[17]; first compound 6.325 µM", "value": 0.456},
      {"measurement": "relative viability", "setting": "[17]; first compound 20 µM", "value": 0.148},
      {"measurement": "relative viability", "setting": "[18]; first compound 0.2 µM", "value": 0.889},
      {"measurement": "relative viability", "setting": "[18]; first compound 0.6325 µM", "value": 1.01},
      {"measurement": "relative viability", "setting": "[18]; first compound 2 µM", "value": 0.351},
      {"measurement": "relative viability", "setting": "[18]; first compound 6.325 µM", "value": 0.256},
      {"measurement": "relative viability", "setting": "[18]; first compound 20 µM", "value": 0.0216},
      {"measurement": "relative viability", "setting": "[19]; first compound 0.2 µM", "value": 0.662},
      {"measurement": "relative viability", "setting": "[19]; first compound 0.6325 µM", "value": 0.577},
      {"measurement": "relative viability", "setting": "[19]; first compound 2 µM", "value": 0.507},
      {"measurement": "relative viability", "setting": "[19]; first compound 6.325 µM", "value": 0.362},
      {"measurement": "relative viability", "setting": "[19]; first compound 20 µM", "value": 0.206},
      {"measurement": "relative viability", "setting": "[20]; first compound 0.2 µM", "value": 1.13},
      {"measurement": "relative viability", "setting": "[20]; first compound 0.6325 µM", "value": 1.16},
      {"measurement": "relative viability", "setting": "[20]; first compound 2 µM", "value": 1.07},
      {"measurement": "relative viability", "setting": "[20]; first compound 6.325 µM", "value": 0.932},
      {"measurement": "relative viability", "setting": "[20]; first compound 20 µM", "value": 0.733}
    ]}
  ]
}
